Laboratory results published in US20230165831A1, “METHOD AND COMPOSITION FOR RENDERING CANCER CELLS SUSCEPTIBLE TO TREATMENT BY TARGETED ONCOGENETIC DRIVERS” (IMPACT BIOLIFE SCIENCE, INC., priority 2021, published 2023).

How the values were obtained:
[1] = test system: breast cancer line T47D cells; assay: CTG (CellTiter-Glo) cell viability assay, 6×6 combo matrix, 72 h, T47D;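 note: luminescence read-out after 72 h at 37 °C under 5% CO2, with medium-only wells as blanks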
[2] = test system: prostate adenocarcinoma line LNCap cells; assay: CTG (CellTiter-Glo) cell viability assay, 6×6 combo matrix, 72 h, LNCaP;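 note: luminescence signal read after adding CellTiter-Glo reagent, with cells exposed to compounds for 72 h at 37 °C under 5% CO2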
[3] = test system: Liver cancer line SK-HEP-1 cells; assay: CTG (CellTiter-Glo) cell viability assay, 6×6 combo matrix, 72 h, SK-Hep-1;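 note: luminescent signal read after 72 h compound exposure at 37 °C under 5% CO2, with medium-only wells serving as blank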
[4] = test system: gastric cancer line MKN45 cells; assay: CTG (CellTiter-Glo) cell viability assay, 6×6 combo matrix, 72 h, MKN45;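 note: MKN45 cell viability read as CellTiter-Glo luminescence after 72 h culture at 37 °C under 5% CO2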
Method: (§1) 7) Using complete cell medium, adjust the volume of the suspension to achieve a cell concentration.
(§2) Solid compound of cis-platinum was solubilized in PBS to a stock solution of 3.333 mM.
(§3) Final volume is 100 µL per well at this point.
(§4) 1) Incubate the plates at room temperature and away from light for 30 minutes.
(§5) 3) Add 100 µL /well of CellTiter-Glo® Reagent in each well. Avoid light.
(§6) 4) Mix contents for 2 minutes on an orbital shaker.
(§7) 5) Incubate plate at room temperature for 10 minutes to stabilize the luminescent signal.

[5] = test system: lung adenocarcinoma line A549 cells; assay: CTG (CellTiter-Glo) cell viability assay, 6×6 combo matrix, 72 h, A549; details: A549;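 note: luminescent ATP readout with CellTiter-Glo after compound exposure, used to assess growth inhibition and combination synergy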
[6] = test system: ovarian cancer line SK-OV3 cells; assay: CTG (CellTiter-Glo) cell viability assay, 6×6 combo matrix, 72 h, SK-OV-3; details: SK-OV-3;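 note: luminescent signal read after CellTiter-Glo addition, cells exposed to compounds for 72 h at 37 °C under 5% CO2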
Method: as §1, §2, §3, §4, §5, §6, §7

[7] = test system: colorectal cancer line HT29 cells; assay: CTG (CellTiter-Glo) cell viability assay, 6×6 combo matrix, 72 h, HT29; details: HT29;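 note: cells exposed to compounds for 72 hours at 37 °C under 5% CO2, then viability read as luminescence after adding CellTiter-Glo Reagent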
[8] = test system: pancreatic cancer line Capan-1 cells; assay: CTG (CellTiter-Glo) cell viability assay, 6×6 combo matrix, 72 h, Capan-1; type: cell-based; details: for Relatively Cell inhibition of vehicle control(%): Capan-1
Method: To measure the cell inhibition effect of compounds and synergy effect of test articles on ten (10) cell lines using standard CTG assay.
b. A549, T47D, SK-OV-3, MKN45, SK-Hep-1, HT-29, Capan-1, 786-O and LNCaP cell line, for compounds and vehicle groups, the seeding density of cell lines is 3000 cells/80 µL per well. For blank groups, add 100 µL medium. For PBS groups, add 100 µL PBS.
8) Incubate the U87MG, A549, T47D, SK-OV-3, MKN45, SK-Hep-1, HT-29, Capan-1, 786-O and LNCaP cells overnight at 37° C./5% CO2.
5) Incubate the plates at 37° C./5% CO2 for 72 hours.
6) Read plates in Envision.

[9] = test system: glioblastoma line U87MG cells; assay: CTG (CellTiter-Glo) cell viability assay, 6×6 combo matrix, 72 h, U87MG;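 note: U87MG cells seeded at 2000 per well, exposed 72 h, viability read by CellTiter-Glo luminescence, inhibition expressed relative to vehicle-treated wells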
Method: as §1
U87MG cell lines, for compounds and vehicle groups, the seeding density of cell lines is 2000 cells/80 µL per well. For blank groups, add 100 µL medium. For PBS groups, add 100 µL PBS.
as §2, §3, §4, §5, §6, §7

[10] = test system: kidney cancer line 786-O cells; assay: CTG (CellTiter-Glo) cell viability assay, 6×6 combo matrix, 72 h, 786-O; details: for Relatively Cell inhibition of vehicle control(%): 786-O;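 for all read-outs here: luminescence read-out after adding CellTiter-Glo reagent, with cells incubated at 37 °C under 5% CO2 during compound exposure, part of a ten cell line synergy study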
Method: as §1, §2, §3, §4, §5, §6, §7

[11] = cisplatin 0.048 µM only (myricetin plate)
[12] = cisplatin 1.2 µM only (myricetin plate)
[13] = cisplatin 6 µM only (myricetin plate)
[14] = cisplatin 30 µM only (myricetin plate)

N.N.[Cl][Pt][Cl] [cisplatin]
Relatively Cell inhibition of vehicle control(%) ([1]; 0.048 µM cisplatin only (LB-1 0)): 1.63%
Relatively Cell inhibition of vehicle control(%) ([1]; 0.048 µM cisplatin only (myricetin 0)): 0.23%
Relatively Cell inhibition of vehicle control(%) ([1]; 1.2 µM cisplatin only (LB-1 0)): -1.67%
Relatively Cell inhibition of vehicle control(%) ([1]; 1.2 µM cisplatin only (myricetin 0)): 0.07%
Relatively Cell inhibition of vehicle control(%) ([1]; 6 µM cisplatin only (LB-1 0)): -0.49%
Relatively Cell inhibition of vehicle control(%) ([1]; 6 µM cisplatin only (myricetin 0)): 11.28%
Relatively Cell inhibition of vehicle control(%) ([1]; 30 µM cisplatin only (LB-1 0)): 22.74%
Relatively Cell inhibition of vehicle control(%) ([1]; 30 µM cisplatin only (myricetin 0)): 36.54%
Relatively Cell inhibition of vehicle control(%) ([2]; cisplatin 0.048 µM only (LB-1 plate)): -11.07%
Relatively Cell inhibition of vehicle control(%) [2, 11]: -7.42%
Relatively Cell inhibition of vehicle control(%) ([2]; cisplatin 1.2 µM only (LB-1 plate)): -13.28%
Relatively Cell inhibition of vehicle control(%) [2, 12]: -9.21%
Relatively Cell inhibition of vehicle control(%) ([2]; cisplatin 6 µM only (LB-1 plate)): 12.99%
Relatively Cell inhibition of vehicle control(%) [2, 13]: 19.01%
Relatively Cell inhibition of vehicle control(%) ([2]; cisplatin 30 µM only (LB-1 plate)): 53.09%
Relatively Cell inhibition of vehicle control(%) [2, 14]: 61.54%
Relatively Cell inhibition of vehicle control ([3]; cisplatin 0.048 µM only (LB-1 table)): -8.71%
Relatively Cell inhibition of vehicle control ([3]; cisplatin 0.048 µM only (myricetin table)): -7.69%
Relatively Cell inhibition of vehicle control ([3]; cisplatin 1.2 µM only (LB-1 table)): -10.98%
Relatively Cell inhibition of vehicle control ([3]; cisplatin 1.2 µM only (myricetin table)): -2.56%
Relatively Cell inhibition of vehicle control ([3]; cisplatin 6 µM only (LB-1 table)): 29.88%
Relatively Cell inhibition of vehicle control ([3]; cisplatin 6 µM only (myricetin table)): 29.55%
Relatively Cell inhibition of vehicle control ([3]; cisplatin 30 µM only (LB-1 table)): 70.68%
Relatively Cell inhibition of vehicle control ([3]; cisplatin 30 µM only (myricetin table)): 76.71%
Relatively Cell inhibition of vehicle control(%) ([4]; Cis 0.048 µM only (LB-1 0)): 7.78%
Relatively Cell inhibition of vehicle control(%) ([4]; Cis 0.048 µM only (Myr 0)): 5.10%
Relatively Cell inhibition of vehicle control(%) ([4]; Cis 1.2 µM only (LB-1 0)): 5.53%
Relatively Cell inhibition of vehicle control(%) ([4]; Cis 1.2 µM only (Myr 0)): 22.76%
Relatively Cell inhibition of vehicle control(%) ([4]; Cis 6 µM only (LB-1 0)): 33.22%
Relatively Cell inhibition of vehicle control(%) ([4]; Cis 6 µM only (Myr 0)): 48.92%
Relatively Cell inhibition of vehicle control(%) ([4]; Cis 30 µM only (LB-1 0)): 81.54%
Relatively Cell inhibition of vehicle control(%) ([4]; Cis 30 µM only (Myr 0)): 90.46%
inhibition rate ([5]; 30 µM cisplatin only (LB-1 0), 72 h): 65.03%
Relatively Cell inhibition of vehicle control(%) ([5]; cisplatin 0.048 µM only (myricetin 0)): 1.46%
Relatively Cell inhibition of vehicle control(%) ([5]; cisplatin 1.2 µM only (myricetin 0)): 0.61%
Relatively Cell inhibition of vehicle control(%) ([5]; cisplatin 6 µM only (myricetin 0)): 33.19%
Relatively Cell inhibition of vehicle control(%) ([5]; cisplatin 30 µM only (myricetin 0)): 77.27%
Relatively Cell inhibition of vehicle control(%) ([5]; Cis 0.048 µM only): 0.17%
Relatively Cell inhibition of vehicle control(%) ([5]; Cis 1.2 µM only): 1.57%
Relatively Cell inhibition of vehicle control(%) ([5]; Cis 6 µM only): 33.27%
Relatively Cell inhibition of vehicle control(%) ([5]; Cis 30 µM only): 65.03%
Relatively Cell inhibition of vehicle control(%) ([6]; Cis 0.048 µM only (LB-1 matrix)): -0.61%
Relatively Cell inhibition of vehicle control(%) ([6]; Cis 0.048 µM only (myricetin matrix)): 0.65%
Relatively Cell inhibition of vehicle control(%) ([6]; Cis 1.2 µM only (LB-1 matrix)): 7.66%
Relatively Cell inhibition of vehicle control(%) ([6]; Cis 1.2 µM only (myricetin matrix)): 17.32%
Relatively Cell inhibition of vehicle control(%) ([6]; Cis 6 µM only (LB-1 matrix)): 50.05%
Relatively Cell inhibition of vehicle control(%) ([6]; Cis 6 µM only (myricetin matrix)): 55.97%
Relatively Cell inhibition of vehicle control(%) ([6]; Cis 30 µM only (LB-1 matrix)): 88.98%
Relatively Cell inhibition of vehicle control(%) ([6]; Cis 30 µM only (myricetin matrix)): 85.03%
Relatively Cell inhibition of vehicle control(%) ([7]; Cis 0.048 µM only (LB-1 0)): 2.74%
Relatively Cell inhibition of vehicle control(%) ([7]; Cis 0.048 µM only (Myr 0)): -4.21%
Relatively Cell inhibition of vehicle control(%) ([7]; Cis 1.2 µM only (LB-1 0)): 6.85%
Relatively Cell inhibition of vehicle control(%) ([7]; Cis 1.2 µM only (Myr 0)): 6.63%
Relatively Cell inhibition of vehicle control(%) ([7]; Cis 6 µM only (LB-1 0)): 19.05%
Relatively Cell inhibition of vehicle control(%) ([7]; Cis 6 µM only (Myr 0)): 20.8%
Relatively Cell inhibition of vehicle control(%) ([7]; Cis 30 µM only (LB-1 0)): 52.83%
Relatively Cell inhibition of vehicle control(%) ([7]; Cis 30 µM only (Myr 0)): 66.86%
Relatively Cell inhibition of vehicle control(%) ([8]; Cis 0.048 µM only): -11.79%
Relatively Cell inhibition of vehicle control(%) ([8]; Cis 1.2 µM only): 19.41%
Relatively Cell inhibition of vehicle control(%) ([8]; Cis 6 µM only): 49.43%
Relatively Cell inhibition of vehicle control(%) ([8]; Cis 30 µM only): 79.85%
Relatively Cell inhibition of vehicle control ([8]; cisplatin 0.048 µM only): -4.42%
Relatively Cell inhibition of vehicle control ([8]; cisplatin 1.2 µM only): 16.43%
Relatively Cell inhibition of vehicle control ([8]; cisplatin 6 µM only): 42.34%
Relatively Cell inhibition of vehicle control ([8]; cisplatin 30 µM only): 66.79%
Relatively Cell inhibition of vehicle control(%) ([9]; cisplatin 0.048 µM only): 1.97%
Relatively Cell inhibition of vehicle control(%) [9, 11]: 0.89%
Relatively Cell inhibition of vehicle control(%) ([9]; cisplatin 1.2 µM only): 11.78%
Relatively Cell inhibition of vehicle control(%) [9, 12]: 15.05%
Relatively Cell inhibition of vehicle control(%) ([9]; cisplatin 6 µM only): 46.78%
Relatively Cell inhibition of vehicle control(%) [9, 13]: 58.90%
Relatively Cell inhibition of vehicle control(%) ([9]; cisplatin 30 µM only): 83.20%
Relatively Cell inhibition of vehicle control(%) [9, 14]: 86.28%
Relatively Cell inhibition of vehicle control(%) ([10]; Cis 0.048 µM only (LB-1 0)): 0.45%
Relatively Cell inhibition of vehicle control(%) ([10]; Cis 1.2 µM only (LB-1 0)): 5.31%
Relatively Cell inhibition of vehicle control(%) ([10]; Cis 6 µM only (LB-1 0)): 60.32%
Relatively Cell inhibition of vehicle control(%) ([10]; Cis 30 µM only (LB-1 0)): 90.04%
Relatively Cell inhibition of vehicle control ([10]; cisplatin 0.048 µM only): -1.09%
Relatively Cell inhibition of vehicle control ([10]; cisplatin 1.2 µM only): 10.33%
Relatively Cell inhibition of vehicle control ([10]; cisplatin 6 µM only): 67.62%
Relatively Cell inhibition of vehicle control ([10]; cisplatin 30 µM only): 86.78%
